Experimental data published in ChEMBL document CHEMBL1201862, “PubChem BioAssay data set” (2004).
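The compound was tested at five concentrations on cells cultured in 96-well plates, with a 48-hour exposure period. The concentration for 50% growth inhibition is given as GI50.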 Calls of active or inactive are those of the source. Rule as the data show it: active = GI50 up to about 1.1 µM and inactive = higher.

Legend:
Test in all cases: DTP human tumour cell line panel, 48 h
COLO 205 = system: COLO 205
LOX IMVI = system: LOX IMVI
MOLT-4 = system: MOLT-4
SW-620 = system: SW-620
SK-MEL-2 = system: SK-MEL-2
CCRF-CEM = system: CCRF-CEM
CAKI-1 = system: CAKI-1
UACC-62 = system: UACC-62
OVCAR-3 = system: OVCAR-3
HCT-116 = system: HCT-116
UO-31 = system: UO-31
SK-OV-3 = system: SK-OV-3
U-251 = system: U-251
SR = system: SR
SK-MEL-28 = system: SK-MEL-28
HCC 2998 = system: HCC 2998
MDA-MB-435 = system: MDA-MB-435
Malme-3M = system: Malme-3M
M14 = system: M14
OVCAR-4 = system: OVCAR-4
NCI-H460 = system: NCI-H460
SN12C = system: SN12C
SNB-19 = system: SNB-19
KM12 = system: KM12
Hs-578T = system: Hs-578T
NCI-H522 = system: NCI-H522
PC-3 = system: PC-3
OVCAR-5 = system: OVCAR-5
DU-145 = system: DU-145
ACHN = system: ACHN
IGROV-1 = system: IGROV-1
T47D = system: T47D
A549 = system: A549
SNB-75 = system: SNB-75
786-0 = system: 786-0
HOP-62 = system: HOP-62
BT-549 = system: BT-549
TK-10 = system: TK-10
SK-MEL-5 = system: SK-MEL-5
MDA-N = system: MDA-N
UACC-257 = system: UACC-257
MDA-MB-231 = system: MDA-MB-231
EKVX = system: EKVX
SF-268 = system: SF-268
SF-295 = system: SF-295
HT-29 = system: HT-29
HOP-92 = system: HOP-92
RPMI-8226 = system: RPMI-8226
NCI-H23 = system: NCI-H23
OVCAR-8 = system: OVCAR-8
HL-60 = system: HL-60
NCI-H226 = system: NCI-H226
K562 = system: K562
RXF 393 = system: RXF 393
MCF7 = system: MCF7
SF-539 = system: SF-539
HCT-15 = system: HCT-15

SMILES: C/C(=N/NC(=S)NCCc1ccccn1)c1cnccn1
- GI50 (COLO 205): 3.8 µM (inactive)
- GI50 (LOX IMVI): 9.66 µM (inactive)
- GI50 (MOLT-4): 3.26 µM (inactive)
- GI50 (SW-620): 11.9 µM (inactive)
- GI50 (SK-MEL-2): > 100 µM (inactive)
- GI50 (CCRF-CEM): 2.64 µM (inactive)
- GI50 (CAKI-1): 14.1 µM (inactive)
- GI50 (UACC-62): 18.3 µM (inactive)
- GI50 (OVCAR-3): 32.1 µM (inactive)
- GI50 (HCT-116): 23.2 µM (inactive)
- GI50 (UO-31): 16.6 µM (inactive)
- GI50 (SK-OV-3): 20.1 µM (inactive)
- GI50 (U-251): 20.2 µM (inactive)
- GI50 (SR): 2.44 µM (inactive)
- GI50 (SK-MEL-28): 31 µM (inactive)
- GI50 (HCC 2998): 40.4 µM (inactive)
- GI50 (MDA-MB-435): 53.3 µM (inactive)
- GI50 (Malme-3M): 6.37 µM (inactive)
- GI50 (M14): 24 µM (inactive)
- GI50 (OVCAR-4): 24.4 µM (inactive)
- GI50 (NCI-H460): 52.5 µM (inactive)
- GI50 (SN12C): 21.9 µM (inactive)
- GI50 (SNB-19): 54.7 µM (inactive)
- GI50 (KM12): 36.9 µM (inactive)
- GI50 (Hs-578T): 78.5 µM (inactive)
- GI50 (NCI-H522): 3.6 µM (inactive)
- GI50 (PC-3): 48.8 µM (inactive)
- GI50 (OVCAR-5): 79.3 µM (inactive)
- GI50 (DU-145): 17.8 µM (inactive)
- GI50 (ACHN): 20.7 µM (inactive)
- GI50 (IGROV-1): 19 µM (inactive)
- GI50 (T47D): 6.05 µM (inactive)
- GI50 (A549): 28.8 µM (inactive)
- GI50 (SNB-75): > 100 µM (inactive)
- GI50 (786-0): 14.6 µM (inactive)
- GI50 (HOP-62): 31.2 µM (inactive)
- GI50 (BT-549): 32.5 µM (inactive)
- GI50 (TK-10): 17 µM (inactive)
- GI50 (SK-MEL-5): 27 µM (inactive)
- GI50 (MDA-N): 53 µM (inactive)
- GI50 (UACC-257): 35.6 µM (inactive)
- GI50 (MDA-MB-231): 26.2 µM (inactive)
- GI50 (EKVX): 10.9 µM (inactive)
- GI50 (SF-268): 38.5 µM (inactive)
- GI50 (SF-295): 24.4 µM (inactive)
- GI50 (HT-29): 3.78 µM (inactive)
- GI50 (HOP-92): 49.3 µM (inactive)
- GI50 (RPMI-8226): 13.3 µM (inactive)
- GI50 (NCI-H23): 38.6 µM (inactive)

SMILES: CC1=Nc2c(N)nc(N)nc2N(C)C1
- GI50 (COLO 205): > 100 µM (inactive)
- GI50 (MOLT-4): > 100 µM (inactive)
- GI50 (SW-620): > 100 µM (inactive)
- GI50 (OVCAR-8): > 100 µM (inactive)
- GI50 (SK-MEL-2): > 100 µM (inactive)
- GI50 (CCRF-CEM): > 100 µM (inactive)
- GI50 (HL-60): > 100 µM (inactive)
- GI50 (CAKI-1): > 100 µM (inactive)
- GI50 (UACC-62): > 100 µM (inactive)
- GI50 (OVCAR-3): > 100 µM (inactive)
- GI50 (NCI-H226): > 100 µM (inactive)
- GI50 (UO-31): 74.3 µM (inactive)
- GI50 (SK-OV-3): > 100 µM (inactive)
- GI50 (U-251): > 100 µM (inactive)
- GI50 (SK-MEL-28): > 100 µM (inactive)
- GI50 (MDA-MB-435): > 100 µM (inactive)
- GI50 (Malme-3M): > 100 µM (inactive)
- GI50 (M14): > 100 µM (inactive)
- GI50 (NCI-H460): > 100 µM (inactive)
- GI50 (SN12C): > 100 µM (inactive)
- GI50 (SNB-19): > 100 µM (inactive)
- GI50 (KM12): > 100 µM (inactive)
- GI50 (Hs-578T): > 100 µM (inactive)
- GI50 (PC-3): > 100 µM (inactive)
- GI50 (K562): > 100 µM (inactive)
- GI50 (OVCAR-5): > 100 µM (inactive)
- GI50 (DU-145): > 100 µM (inactive)
- GI50 (ACHN): > 100 µM (inactive)
- GI50 (IGROV-1): > 100 µM (inactive)
- GI50 (T47D): > 100 µM (inactive)
- GI50 (SNB-75): > 100 µM (inactive)
- GI50 (RXF 393): > 100 µM (inactive)
- GI50 (MCF7): > 100 µM (inactive)
- GI50 (HOP-62): > 100 µM (inactive)
- GI50 (SF-539): > 100 µM (inactive)
- GI50 (BT-549): > 100 µM (inactive)
- GI50 (TK-10): > 100 µM (inactive)
- GI50 (SK-MEL-5): > 100 µM (inactive)
- GI50 (MDA-N): > 100 µM (inactive)
- GI50 (UACC-257): > 100 µM (inactive)
- GI50 (MDA-MB-231): > 100 µM (inactive)
- GI50 (EKVX): > 100 µM (inactive)
- GI50 (HCT-15): > 100 µM
- GI50 (SF-268): > 100 µM (inactive)
- GI50 (SF-295): > 100 µM (inactive)
- GI50 (RPMI-8226): > 100 µM (inactive)
- GI50 (NCI-H23): > 100 µM (inactive)
